Data taken from patent US11401278B2, “Macrocyclic indole derivatives” (The Broad Institute, Inc., priority 2017, dated 2022).
Where a name gives a salt, the structure may show the parent alone.

Tests used:
[1] = molecular target: BCL-XL (Homo sapiens (Human), UniProt Q07817); test: Protein-protein interaction assay BCL-XL/Bad BH3 peptide (BCL-XL assay, TR-FRET); type: binding; details: His-BCL-XL / Bad BH3 peptide, median
Description: Assay 2 Protein-Protein Interaction Assay: BCL-XL/Bad BH3 Peptide (BCL-XL Assay)
The dose-dependent inhibition by the compounds described in this invention of the interaction between BCL-XL and the BH3 domain of Bad (both human) was determined using a steady state binding competition assay with time-resolved fluorescence energy transfer (TR-FRET) readout. For that purpose BCL-XL (amino acids 1-212, C-terminal fused to a hexahistidine (6×His) tag (SEQ ID 3) and a synthetic Bad BH3-derived peptide of sequence Biotin-PEG2-PEG2-NLWAAQRYGRELRR-Nle-SDEFVDSFKK-amide (SEQ ID 4) served as protein receptor and tracer ligand respectively. The recombinant BCL-XL protein (expressed in E. coli) was purchased from BPS Bioscience (San Diego, Calif., USA). The Bad BH3-derived peptide can be obtained from e.g. Biosyntan (Berlin, Germany).
In the assay 11 different concentrations of each compound (0.1 nM, 0.33 nM, 1.1 nM, 3.8 nM, 13 nM, 44 nM, 0.15 μM, 0.51 μM, 1.7 μM, 5.9 μM and 20 μM) were typically measured as duplicates in the same microtiter plate. For that, 100-fold concentrated DMSO solutions were prepared by serial dilutions (1:3.4) of a 2 mM stock solution in a clear, 384-well microtiter plate (Greiner Bio-One, Frickenhausen, Germany). From there, 50 nl were transferred in a dark test plate (Greiner Bio-One, Frickenhausen, Germany). The assay was initiated by addition of 2 μl of a 2.5-fold concentrated His-BCL-XL solution (usually for a 1 nM end concentration in 5 μl reaction volume) in aqueous assay buffer [50 mM Tris/HCl pH 7, 100 mM sodium chloride (NaCl), 50 mM potassium fluoride (KF), 0.005% Tween-20, 2 mM DTT, 0.1% bovine gamma globulin (BGG)] to the compounds in the assay plate. This was followed by a 10-minute incubation step at 22° C. for pre-equilibration of the putative complex between His-BCL-XL and the compounds. After that, 3 μl of a 1.67-fold concentrated solution (in assay buffer) consisting of Bad BH3-derived peptide (1 nM end concentration) and TR-FRET detection reagents [1.67 nM anti-His-Eu cryptate and 1.67 nM streptavidin-XL665 (both from Cisbio Bioassays, Codolet, France)], were added.
The mixture was incubated in the dark for one hour at 22° C. and then overnight at 4° C. The formation of BCL-XL/Bad complexes was determined by measuring the resonance energy transfer of the anti-His- Eu-cryptate antibody to the streptavidin-XL665 present in the reaction. For that purpose, the fluorescence emission at 620 nm and 665 nm after excitation at 330-350 nm was measured in a TR-FRET measuring instrument, for instance a Rubystar or a Pherastar (both from BMG Lab Technologies, Offenburg, Germany) or a Viewlux (Perkin-Elmer). The ratio of the emission at 665 nm and at 622 nm was used as indicator of the amount of BCL-XL/Bad complexes present.
The resulting data (ratio) were normalized, taking 0% inhibition as the mean value of control measurements (usually 32 data points) where all reagents were included. In this case 50 nl DMSO were used instead of compounds. A 100% inhibition corresponded to the mean value of control measurements (usually 32 data points) where all reagents except BCL-XL were included. IC50 values were determined by regression analysis based on a 4 parameter equation (minimum, maximum, IC50, Hill; Y=Max+(Min−Max)/(1+(X/IC50)^HiII) using the Screener Software (Genedata).

[2] = tested on: SUDHL5; test: Induction of caspase-3/7 activity (Assay 4), SUDHL5; type: cell-based; details: caspase-3/7 induction, median
How it was run: (§1)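 DLBCL cells were exposed to compounds for 3 hours at 37 °C, then caspase-3/7 activation was read with Caspase-Glo 3/7 reagent. After subtracting medium-only background, EC50s were derived with fixed C0=1 and the reference compound's maximal induction as plateau.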

[3] = tested on: SUDHL10; test: Induction of caspase-3/7 activity (Assay 4), SUDHL10; type: cell-based; details: caspase-3/7 induction, median
How it was run: as §1

[4] = tested on: SUDHL5; test: Antiproliferation assay (Assay 7), SUDHL5; type: cell-based; details: CellTiter-Glo, median, read-out: Antiproli SUDHL5 [M] (median) IC50
How it was run: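 CellTiter-Glo luminescence readout; 72 h compound exposure, 37° C, humidified. Day 0 reference plate read at plating for time-zero baseline.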

[5] = tested on: SUDHL5; test: Induction of cytotoxicity (Assay 6), SUDHL5; details: read-out: Cytotox SUDHL5 [M] (median) IC50, CellTiter-Glo, 5 hours, SUDHL5

Sequence of BCL-XL (Q07817 other isoform, or with tags, fused parts or gaps): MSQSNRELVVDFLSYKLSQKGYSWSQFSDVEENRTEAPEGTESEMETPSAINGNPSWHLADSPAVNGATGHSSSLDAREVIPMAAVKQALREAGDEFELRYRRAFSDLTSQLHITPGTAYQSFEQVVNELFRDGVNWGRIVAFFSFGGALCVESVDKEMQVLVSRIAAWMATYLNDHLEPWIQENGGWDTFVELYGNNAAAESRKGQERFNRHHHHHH

For `CCc1c2c(nn1C)C(CCC1CCOCC1)N(C)S(=O)(=O)CCCn1c(C(=O)O)c(CCCOc3cccc4cc(F)ccc34)c3ccc(Cl)c-2c31` (single isomer, unassigned; enantiomer 2) [Example 62, (−)-4-chloro-3-ethyl-7-{3-[(6-fluoronaphthalen-1-yl)oxy]propyl}-2,14-dimethyl-15-[2-(oxan-4-yl)ethyl]-13,13-dioxo-10,11,12,13,14,15-hexahydro-2H-13lambda^6-pyrazolo[3′,4′:4,5][1,2,8]thiadiazacycloundecino[6,7,8-hi]indole-8-carboxylic acid (Enantiomer 2)], the IC50 [1] was 18000 nM, the EC50 ([2]; 3 hours) was 4100 nM and the EC50 ([3]; 3 hours) was 6800 nM. It also gave an IC50 ([4]; 72 hours) of 3.7e-06 M and an IC50 [5] of 5.3e-06 M.
With `COc1ccc(CN2Cc3nn(C)c(C)c3-c3c(Cl)ccc4c(CCCOc5cccc6cc(F)ccc56)c(C(=O)O)n(c34)CCCS2(=O)=O)c(OC)c1` (racemic) [Example 49, (rac)-4-chloro-14-(2,4-dimethoxybenzyl)-7-{3-[(6-fluoro-1-naphthyl)oxy]propyl}-2,3-dimethyl-11,12,14,15-tetrahydro-2H,10H-pyrazolo[3′,4′:4,5][1,2,8]thiadiazacycloundecino[6,7,8-hi]indole-8-carboxylic acid 13,13-dioxide] the IC50 [1] was over 20000 nM, the EC50 ([2]; Homo sapiens, SU-DHL-5, 3 h) was 210 nM and the EC50 ([3]; Homo sapiens, SU-DHL10, 3 h) was 270 nM. It also gave an IC50 ([4]; Homo sapiens, SU-DHL-5, 72 h) of 8.5e-07 M and an IC50 ([5]; Homo sapiens, SU-DHL-5, 5 h) of 1.8e-07 M.
`CCc1c2c(nn1C)CN(CC)S(=O)(=O)CCCn1c(C(=O)O)c(CCCOc3cccc4cc(F)ccc34)c3ccc(Cl)c-2c31` (single isomer, unassigned; enantiomer 1) [Example 57, (+)-4-chloro-3,14-diethyl-7-{3-[(6-fluoronaphthalen-1-yl)oxy]propyl}-2-methyl-13,13-dioxo-10,11,12,13,14,15-hexahydro-2H-13lambda^6-pyrazolo[3′,4′:4,5][1,2,8]thiadiazacycloundecino[6,7,8-hi]indole-8-carboxylic acid N-ethylethanamine Salt (Enantiomer 1)] showed an EC50 ([2]; 3 hours) of 120 nM, an EC50 ([3]; 3 hours) of 110 nM and an IC50 ([4]; 72 hours) of 5.8e-08 M. The IC50 [5] was 1.1e-07 M.
`CCc1c2c(nn1C)CN(C)S(=O)(=O)CCCn1c(C(=O)O)c(CCCOc3cc(C)c(Cl)c(C)c3)c3ccc(F)c-2c31` (racemic) [Example 33, (rac)-1-(3-(4-Chloro-3,5-dimethylphenoxy)propyl)-12-ethyl-13-fluoro-8,11-dimethyl-5,6,9,11-tetrahydro-4H,8H-pyrazolo[3′,4′:4,5][1]thia[2,8]diazacycloundecino[6,7,8-hi]indole-2-carboxylic acid 7,7-dioxide] gave an IC50 [1] of over 20000 nM, an EC50 ([2]; Homo sapiens, SU-DHL-5, 3 h) of 1600 nM and an EC50 ([3]; Homo sapiens, SU-DHL10, 3 h) of 5100 nM. It also gave an IC50 ([5]; Homo sapiens, SU-DHL-5, 5 h) of 2.6e-06 M.
For `CCc1c2c(nn1C)CN(CC)S(=O)(=O)CCCn1c(C(=O)O)c(CCCOc3cccc4cc(F)ccc34)c3ccc(Cl)c-2c31` (racemic) [Example 56, (rac)-4-chloro-3,14-diethyl-7-{3-[(6-fluoro-1-naphthyl)oxy]propyl}-2-methyl-11,12,14,15-tetrahydro-2H,10H-pyrazolo[3′,4′:4,5][1,2,8]thiadiazacycloundecino[6,7,8-hi]indole-8-carboxylic acid 13,13-dioxide], the EC50 ([2]; Homo sapiens, SU-DHL-5, 3 h) was 200 nM, the EC50 ([3]; Homo sapiens, SU-DHL10, 3 h) was 160 nM and the IC50 ([4]; Homo sapiens, SU-DHL-5, 72 h) was 9.6e-08 M. For the same compound, the IC50 ([5]; Homo sapiens, SU-DHL-5, 5 h) was 2.8e-07 M.
Work on `CCc1c2c(nn1C)C(CCN1CCOCC1)N(C)S(=O)(=O)CCCn1c(C(=O)O)c(CCCOc3cccc4cc(F)ccc34)c3ccc(Cl)c-2c31` (racemic) [Example 73, (rac)-(4-chloro-3-ethyl-7-{3-[(6-fluoronaphthalen-1-yl)oxy]propyl}-2,14-dimethyl-15-[2-(morpholin-4-yl)ethyl]-13,13-dioxo-10,11,12,13,14,15-hexahydro-2H-13lambda^6-pyrazolo[3′,4′:4,5][1,2,8]thiadiazacycloundecino[6,7,8-hi]indole-8-carboxylic acid (Racemate 1)] yielded an EC50 ([2]; 3 hours) of 23 nM, an EC50 ([3]; 3 hours) of 230 nM and an IC50 ([4]; 72 hours) of 1.5e-08 M.
In the case of `CCc1c2c(nn1C)CN(C1CC1)S(=O)(=O)CCCn1c(C(=O)O)c(CCCOc3cccc4cc(F)ccc34)c3ccc(Cl)c-2c31` (single isomer, unassigned; enantiomer 1) [Example 54, (−)-4-chloro-14-cyclopropyl-3-ethyl-7-{3-[(6-fluoronaphthalen-1-yl)oxy]propyl}-2-methyl-13,13-dioxo-10,11,12,13,14,15-hexahydro-2H-13lambda^6-pyrazolo[3′,4′:4,5][1,2,8]thiadiazacycloundecino[6,7,8-hi]indole-8-carboxylic acid N-ethylethanamine Salt (Enantiomer 1)], the EC50 ([2]; 3 hours) is reported as 260 nM, the EC50 ([3]; 3 hours) is reported as 520 nM and the IC50 ([4]; 72 hours) is reported as 4.1e-07 M. For the same compound, the IC50 [5] was 3.6e-07 M.
`CCNCC.CCc1c2c(nn1C)C(CCN1CCOCC1)N(C)S(=O)(=O)CCCn1c(C(=O)O)c(CCCOc3cccc4cc(F)ccc34)c3ccc(Cl)c-2c31` (single isomer, unassigned; enantiomer 2) [Example 76, 4-chloro-3-ethyl-7-{3-[(6-fluoronaphthalen-1-yl)oxy]propyl}-2,14-dimethyl-15-[2-(morpholin-4-yl)ethyl]-13,13-dioxo-10,11,12,13,14,15-hexahydro-2H-13lambda^6-pyrazolo[3′,4′:4,5][1,2,8]thiadiazacycloundecino[6,7,8-hi]indole-8-carboxylic acid-N-ethylethanamine Salt (Enantiomer 2)] gave an EC50 ([2]; 3 hours) of 6.5 nM, an EC50 ([3]; 3 hours) of 5.5 nM and an IC50 ([4]; 72 hours) of 5.7e-09 M. It also gave an IC50 [5] of 6.7e-09 M.
With `Cc1c2c(nn1C)CN(C)S(=O)(=O)CCCn1c(C(=O)O)c(CCCOc3cccc4ccccc34)c3ccc(Cl)c-2c31` (single isomer, unassigned; enantiomer 1) [Example 5, 4-Chloro-2,3,14-trimethyl-7-{3-[(naphthalen-1-yl)oxy]propyl}-13,13-dioxo-10,11,12,13,14,15-hexahydro-2H-13λ^6-pyrazolo[3′,4′:4,5][1,2,8]thiadiazacycloundecino[6,7,8-hi]indole-8-carboxylic acid-N-ethylethanamine salt (Enantiomer 1)] the EC50 ([2]; 3 hours) was 130 nM, the EC50 ([3]; 3 hours) was 590 nM and the IC50 ([4]; 72 hours) was 5.1e-07 M. The IC50 [5] was 4.9e-07 M.
`Cc1c2c(nn1C)C(CCN1CCOCC1)N(C)S(=O)(=O)CCCn1c(C(=O)O)c(CCCOc3cccc4cc(F)ccc34)c3ccc(Cl)c-2c31` (single isomer, unassigned; enantiomer 2) [Example 67, 4-chloro-7-{3-[(6-fluoronaphthalen-1-yl)oxy]propyl}-2,3,14-trimethyl-15-[2-(morpholin-4-yl)ethyl]-13,13-dioxo-10,11,12,13,14,15-hexahydro-2H-13lambda^6-pyrazolo[3′,4′:4,5][1,2,8]thiadiazacycloundecino[6,7,8-hi]indole-8-carboxylic acid (Enantiomer 2)] showed an EC50 ([2]; 3 hours) of 7.3 nM, an EC50 ([3]; 3 hours) of 12 nM and an IC50 ([4]; 72 hours) of 6.7e-09 M. It also gave an IC50 [5] of 9.8e-09 M.
